Test results: paper PMC7906907, “Targeting STAT3 by a small molecule suppresses pancreatic cancer progression” (Oncogene, 2021)

Legend:
PAN02-luc [1] = test: Orthotopic pancreatic cancer tumor model; assay type: in vivo, C57BL/6 mice; conditions: week 4, C188-9 group
Procedure: Fig. 7 N4 inhibits tumor growth in an orthotopic pancreatic cancer model. C57BL/6 mice were injected the tail of the pancreas with luciferase-expressing PAN02 cells (PAN02-luc) in matrigel and tumor growth was assessed (A) and quantified (B) by bioluminescent imaging weekly. Data represent the mean ± SD; *P < 0.05, **P < 0.01, ***P < 0.001, ****P < 0.0001, n.s. not significant by one-way ANOVA followed by multiple-comparison tests. (n = 5 mice per group) C After 4 weeks, mice were sacrificed and the pancreas were imaged. The tumor of pancreas were photographed (D) and weighted (E), scale bar, 0.5 cm.
Briefly, specimens of tumor tissue from xenograft models and orthotopic models were fixed with 4% paraformaldehyde solution at 4 °C overnight. […] Then, according to the manufacturer’s instructions (SK-4100; Vector laboratories), the avidin-biotin peroxidase complex was used, followed by colorimetric detection using DAB. Finally, hematoxylin was used to counterstain the sections and coverslips were mounted.
C57BL/6 mice, male, 4–6 week old were obtained from the Animal Center of East China Normal University. All animal experimental protocols were approved by the Animal Investigation Committee of the Institute of Biomedical Sciences, East China Normal University. PAN02 cells that stably expressed luciferase (PAN02-luc) were embedded in Matrigel (BD Biosciences) were injected with 5 × 10^5 in the tail of the pancreas. On the next day (day 0), the mice were subjected to bioluminescent imaging and divided into four groups according to the luciferase luminescence value. Mice were treated with intraperitoneal injection of indicated compound or drug. Tumor growth was analyzed once a week by an IVIS Imaging System (Xenogen Corporation, Alameda, CA) and end of study tumor weight was determined immediately postmortem. […] Images and measurements of bioluminescent signals were acquired and analyzed using Living Image and Xenogen software.

PAN02-luc [2] = test: Pancreatic cancer liver metastatic mouse model; assay type: in vivo, C57BL/6 mice
Procedure: C57BL/6 mice were intrasplenically injected with luciferase-expressing PAN02 cells (PAN02-luc) in matrigel and tumor growth was assessed (A) and quantified (B) by bioluminescent imaging weekly. […] C After 4 weeks, mice were sacrificed and livers were imaged. D The body weight of C57BL/6 tumor-bearing mice were measured weekly.
C57BL/6, male, 8-week-old mice were obtained from the Animal Center of East China Normal University. All animal experimental protocols were approved by the Animal Investigation Committee of the Institute of Biomedical Sciences, East China Normal University. PAN02 cells that stably expressed luciferase (PAN02-luc) were embedded in Matrigel (BD Biosciences) and intrasplenically injected into mice. Tumors were allowed to grow for 1 week and treatment of the mice with either compound or control was started after grouping of the mice according to average bioluminescence. The IVIS Imaging System (Xenogen Corporation) was used to monitor pancreatic tumor growth and metastasis. Images and measurements of bioluminescent signals were acquired and analyzed using Living Image and Xenogen software.

[3] = molecular target: His-STAT3^127-722 protein (Homo sapiens, UniProt P40763); test: Fluorescence polarization (FP) assay, STAT3-phosphopeptide interaction; assay type: binding; design: We purified amino acids 127–722 of the STAT3 protein for this assay; made in house; conditions: Supplementary Table 1; inhibition of STAT3 dimerization in FP assay; read-out: FP assay (IC50 μM)
Procedure: A Purified STAT3 protein was incubated with labeled phosphopeptide, 5-carboxyfluorescein-GpYLPQTV-NH2 for 1 h at 37 °C. FP signals were measured, and the data were analyzed using Graph Pad 7.0 software. […] C Different concentrations of N4 were pre-incubated with recombined STAT3 protein for 1 h, then 10 nM of labeled peptide was added for 1 h. The IC50 was calculated using Graph Pad 7.0.
The labeled phosphopeptide: 5-carboxyfluorescein-GpYLPQTV-NH2 (where pY represents phospho-Tyr) was used as the STAT3 binding probe. To evaluate the effect of compounds in inhibiting STAT3-peptide interaction, serial dilutions of the STAT3 competitors were prepared. The diluted compounds were added to the reaction mixture in 100 μl of FP buffer (50 mM HEPES, pH 7.5, 150 mM NaCl, 0.1% NP-40, and 1 mM dithiothreitol) containing 500 nM his-STAT3^127–722 protein for pre-incubation at 37 °C for 1 h. Then, 10 nM of the labeled peptide was added and incubated for 1 h. After incubation, FP was measured on a Cytation^TM 5 cell imaging multi-mode Reader (BioTek) using excitation and emission wavelengths of 480 nm and 535 nm, respectively. Each reaction was repeated two or three times. Binding or competitive parameters were calculated from a nonlinear regression using GraphPad Prism 7.0.

STAT3^127–722 protein = molecular target: T1, STAT3^127–722 protein (Homo sapiens, UniProt P40763); test: Surface plasmon resonance (SPR) assay; assay type: binding; conditions: SPR
T1 construct: made in house
Procedure: Surface plasmon resonance (SPR) analysis was conducted with a Biacore T200 instrument (GE Healthcare) with CM5 sensor chip (GE Healthcare). To test N4 binding of STAT3^127–722 protein, serially diluted concentrations of N4 were injected into the flow system. Experiments were conducted using phosphate buffered saline (PBS) and the analyte was injected at the flow rate of 30 μL/min. The association time was 60 s and the dissociation time was 30 s. Since N4 was dissolved in PBS containing 5% dimethyl sulfoxide and a solvent correction assay was performed to adjust the results. STAT3^127–722 protein was immobilized on the sensor chip (CM5) using the amine-coupling method according to standard protocols. N4 or Stattic at various concentrations were injected into the flow system. […] The KD values were calculated with the kinetics and affinity analysis option of Biacore T200 plus evaluation software (version 3.0).

T1 sequence (P40763 127-722): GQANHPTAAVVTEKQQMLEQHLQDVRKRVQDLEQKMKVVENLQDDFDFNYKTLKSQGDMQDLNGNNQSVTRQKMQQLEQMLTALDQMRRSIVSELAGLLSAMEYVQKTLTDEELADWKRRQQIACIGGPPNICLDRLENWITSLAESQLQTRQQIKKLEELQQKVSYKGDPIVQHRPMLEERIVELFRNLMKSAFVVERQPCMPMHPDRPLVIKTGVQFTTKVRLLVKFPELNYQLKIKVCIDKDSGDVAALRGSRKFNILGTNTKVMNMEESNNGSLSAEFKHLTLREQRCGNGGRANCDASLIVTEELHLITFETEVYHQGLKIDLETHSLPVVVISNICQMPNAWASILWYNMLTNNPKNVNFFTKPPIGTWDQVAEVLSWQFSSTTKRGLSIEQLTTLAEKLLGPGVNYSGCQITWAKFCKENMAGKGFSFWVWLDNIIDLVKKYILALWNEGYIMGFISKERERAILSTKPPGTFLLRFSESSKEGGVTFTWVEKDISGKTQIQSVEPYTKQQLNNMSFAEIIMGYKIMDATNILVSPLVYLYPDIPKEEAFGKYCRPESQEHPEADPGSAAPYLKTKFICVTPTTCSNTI
His-STAT3^127-722 protein, sequence (P40763 127-722): as above

COc1ccc(S(=O)(=O)Nc2cc(-c3c(O)ccc4ccccc34)c(O)c3ccccc23)cc1 [C188-9, reference compound]
tumor volume suppressed compared with the control group (PAN02-luc [1]): 48.23%
all mice died by week (PAN02-luc [2]; C188-9 group, n = 5): ≤ 6 week
tumor metastasis suppressed compared with the control group (PAN02-luc [2]; week 4, C188-9 group): 30.65%

O=[N+]([O-])c1ccc2c(c1)S(=O)(=O)C=C2 [Stattic, reference compound]
IC50 [3]: 4.99 µM
Kd (STAT3^127–722 protein; STAT3^127–722 immobilized on CM5 chip, 25 °C): 9.62 µM
Kd (STAT3^127–722 protein; value given in figure): 9.62 µM
